Earlier results as cited in US5179102A, “Naphthyridinyl/naphthyridinylalkyl-n-terminal anino hydroxy β-amino acid derivatives” (G. D. Searle & Co., priority 1991, dated 1993).
Square brackets hold non-standard residues; d marks the D form. Peptide text beside a SMILES is read from it. * marks the point of attachment. Sta = CC(C)C[C@H](N)[C@@H](O)CC(=O)O; Isovaleryl = CC(C)CC(=O)*

Test system: hog renin
Details: after the injection of hog renin into nephrectomized rats

CC(C)CC(=O)N[C@H](C(=O)N[C@H](C(=O)N[C@@H](CC(C)C)[C@@H](O)CC(=O)N[C@@H](C)C(=O)N[C@@H](CC(C)C)[C@@H](O)CC(=O)O)C(C)C)C(C)C [pepstatin] (Isovaleryl-VV[Sta]A[Sta]-OH)
reduce blood pressure in vivo: found to reduce blood pressure in vivo
